Measurements from patent US6914045B2, “Glycopeptide antibiotics” (Wyeth Holdings Corporation, priority 2001, dated 2005).
Values after ≈ are worked out from the molar mass of the structure shown.

Experiments:
Escherichia coli = test: in vitro antibacterial evaluation, MIC by broth dilution; format: cell-based; conditions: 18 hours at 35° C.
[1] = anatomic pathology (histopathology of heart and kidney) in mice; format: in vivo; conditions: CD-1 mice, 20 mg/kg intravenously daily for 9 days, necropsy day 10, microscopic histopathology
Experimental: Samples of tissues from necropsied mice were formalin-fixed, paraffin-embedded, sectioned, stained with hematoxylin and eosin, and examined microscopically. Histopathologic findings were recorded. These findings were subjectively graded on a scale corresponding to slight, mild, moderate, marked and severe as compared to untreated controls.

[2] = tested on: Staphylococcus aureus-SMITH (GC 4543); test: acute lethal infection in mice; format: in vivo; conditions: acute lethal infection, female CD-1 mice, intraperitoneal challenge, intravenous 30 min. after infection, 7 day survival
Outline: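 Mice (female CD-1, 20+/−2 gm) receive bacteria ip in broth or hog gastric mucin, then test agent iv after 30 min. Median effective dose is calculated from 7 day survival pooled across 3 tests.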

Staphylococcus sp. = test: in vitro antibacterial evaluation, MIC by broth dilution; format: cell-based; conditions: broth dilution, 18 hours at 35° C.
Outline: (§1)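 Inoculum 5×10^5 CFU/mL; concentrations 64 to 0.06 μg/mL; MIC defined as lowest inhibitory level. Conducted by broth dilution under NCCLS guidelines.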

Enterococcus sp. = test: as above; format: cell-based; conditions: broth dilution, 18 hours at 35° C.
Outline: as §1

Streptococcus sp. = test: as above; format: cell-based; conditions: broth dilution, 18 hours at 35° C.
Outline: as §1

COc1ccc2cc(COC3C(CO)OC(OC4C(CO)OC(Oc5ccc(CC6NC(=O)C(C(C)c7ccccc7)NC(=O)CNC(=O)C(CO)NC(=O)C(C(O)C7CNC(=N)N7C7OC(CO)C(O)C(O)C7O)NC(=O)C(C(O)C7CNC(=N)N7)NC6=O)cc5)C(O)C4O)C(O)C3O)ccc2c1 (stereo not drawn) [Example 230a, Cyclo[glycyl-β-methylphenylalanyl-O-[4-O-[4-O-[(6-methoxy-2-naphthyl)methyl]hexopyranosyl]hexopyranosyl]tyrosyl-3-(2-iminoimidazolidin-4-yl)seryl-3-(3-hexopyranosyl-2-iminoimidazolidin-4-yl)serylseryl]]
MIC Escherichia coli (ATCC 25922) (Escherichia coli): 32 µg/mL (≈ 21.8 µM) | MIC Escherichia coli (GC 4559) (Escherichia coli): 32 µg/mL (≈ 21.8 µM) | MIC Escherichia coli (GC 4560) (Escherichia coli): 0.25 to 1 µg/mL | Anatomical Pathology (Day 10), Heart [1]: 0 | Anatomical Pathology (Day 10), Kidney [1]: + | median effective dose (ED50), Staphylococcus aureus-SMITH (GC 4543) [2]: 0.06 mg/kg | MIC Coagulase Negative Staphylococcus (GC 4547) (Staphylococcus sp.): 0.5 to 2 µg/mL | MIC Coagulase Negative Staphylococcus (GC 4548) (Staphylococcus sp.): 0.12 to 0.5 µg/mL | MIC Coagulase Negative Staphylococcus (GC 4549) (Staphylococcus sp.): 0.12 to 0.5 µg/mL | MIC Coagulase Negative Staphylococcus (GC 4551) (Staphylococcus sp.): 0.25 to 1 µg/mL | MIC Coagulase Negative Staphylococcus (GC 6257) (Staphylococcus sp.): 0.25 to 0.5 µg/mL | MIC Staphylococcus aureus (ATCC 29213) (Staphylococcus sp.): 1 to 2 µg/mL | MIC Staphylococcus aureus (GC 1131) (Staphylococcus sp.): 0.5 to 2 µg/mL | MIC Staphylococcus aureus (GC 3051) (Staphylococcus sp.): 1 to 2 µg/mL | MIC Staphylococcus aureus (GC 3053) (Staphylococcus sp.): 1 to 2 µg/mL | MIC Staphylococcus aureus (GC 4541) (Staphylococcus sp.): 0.5 to 2 µg/mL | MIC Staphylococcus aureus (GC 4542) (Staphylococcus sp.): 0.25 to 2 µg/mL | MIC Staphylococcus aureus (GC 4544) (Staphylococcus sp.): 1 to 2 µg/mL | MIC Staphylococcus aureus (GC 4545) (Staphylococcus sp.): 0.5 to 1 µg/mL | MIC Staphylococcus aureus-SMITH (GC 4543) (Staphylococcus sp.): 0.5 to 2 µg/mL | MIC Staphylococcus haemolyticus (GC 4546) (Staphylococcus sp.): 0.25 to 1 µg/mL | MIC Staphylococcus aureus (ATCC 29213) (Staphylococcus sp.; strain ATCC 29213): 1 to 2 µg/mL | MIC Staphylococcus aureus (GC 1131) (Staphylococcus sp.; strain GC 1131): 0.5 to 2 µg/mL | MIC Staphylococcus aureus (GC 3051) (Staphylococcus sp.; strain GC 3051): 1 to 2 µg/mL | MIC Staphylococcus aureus (GC 3053) (Staphylococcus sp.; strain GC 3053): 1 to 2 µg/mL | MIC Staphylococcus aureus (GC 4541) (Staphylococcus sp.; strain GC 4541): 0.5 to 2 µg/mL | MIC Staphylococcus aureus (GC 4542) (Staphylococcus sp.; strain GC 4542): 0.25 to 2 µg/mL | MIC Staphylococcus aureus-SMITH (GC 4543) (Staphylococcus sp.; strain GC 4543): 0.5 to 2 µg/mL | MIC Staphylococcus aureus (GC 4544) (Staphylococcus sp.; strain GC 4544): 1 to 2 µg/mL | MIC Staphylococcus aureus (GC 4545) (Staphylococcus sp.; strain GC 4545): 0.5 to 1 µg/mL | MIC Staphylococcus haemolyticus (GC 4546) (Staphylococcus sp.; strain GC 4546): 0.25 to 1 µg/mL | MIC Coagulase Negative Staphylococcus (GC 4547) (Staphylococcus sp.; strain GC 4547): 0.5 to 2 µg/mL | MIC Coagulase Negative Staphylococcus (GC 4548) (Staphylococcus sp.; strain GC 4548): 0.12 to 0.5 µg/mL | MIC Coagulase Negative Staphylococcus (GC 4549) (Staphylococcus sp.; strain GC 4549): 0.12 to 0.5 µg/mL | MIC Coagulase Negative Staphylococcus (GC 4551) (Staphylococcus sp.; strain GC 4551): 0.25 to 1 µg/mL | MIC Coagulase Negative Staphylococcus (GC 6257) (Staphylococcus sp.; strain GC 6257): 0.25 to 0.5 µg/mL | MIC Enterococcus avium (GC 4558) (Enterococcus sp.): 2 to 4 µg/mL | MIC Enterococcus faecalis (ATCC 29212) (Enterococcus sp.): 2 to 4 µg/mL | MIC Enterococcus faecalis (GC 2242) (Enterococcus sp.): 2 to 4 µg/mL | MIC Enterococcus faecalis (GC 2691) (Enterococcus sp.): 2 to 4 µg/mL | MIC Enterococcus faecalis (GC 3059) (Enterococcus sp.): 2 to 4 µg/mL | MIC Enterococcus faecalis (GC 4552) (Enterococcus sp.): 2 to 4 µg/mL | MIC Enterococcus faecalis (GC 4553) (Enterococcus sp.): 2 to 4 µg/mL | MIC Enterococcus faecalis (GC 4554) (Enterococcus sp.): 2 to 4 µg/mL | MIC Enterococcus faecalis (GC 6189) (Enterococcus sp.): 1 to 4 µg/mL | MIC Enterococcus faecium (GC 2243) (Enterococcus sp.): 2 to 4 µg/mL | MIC Enterococcus faecium (GC 4556) (Enterococcus sp.): 2 to 4 µg/mL | MIC Enterococcus faecium (GC 4557) (Enterococcus sp.): 1 to 2 µg/mL | MIC Enterococcus faecalis (ATCC 29212) (Enterococcus sp.; inoculum 5×10^5 CFU/mL, strain ATCC 29212): 2 to 4 µg/mL | MIC Enterococcus faecalis (GC 2242) (Enterococcus sp.; inoculum 5×10^5 CFU/mL, strain GC 2242): 2 to 4 µg/mL | MIC Enterococcus faecium (GC 2243) (Enterococcus sp.; inoculum 5×10^5 CFU/mL, strain GC 2243): 2 to 4 µg/mL | MIC Enterococcus faecalis (GC 2691) (Enterococcus sp.; inoculum 5×10^5 CFU/mL, strain GC 2691): 2 to 4 µg/mL | MIC Enterococcus faecalis (GC 3059) (Enterococcus sp.; inoculum 5×10^5 CFU/mL, strain GC 3059): 2 to 4 µg/mL | MIC Enterococcus faecalis (GC 4552) (Enterococcus sp.; inoculum 5×10^5 CFU/mL, strain GC 4552): 2 to 4 µg/mL | MIC Enterococcus faecalis (GC 4553) (Enterococcus sp.; inoculum 5×10^5 CFU/mL, strain GC 4553): 2 to 4 µg/mL | MIC Enterococcus faecalis (GC 4554) (Enterococcus sp.; inoculum 5×10^5 CFU/mL, strain GC 4554): 2 to 4 µg/mL | MIC Enterococcus faecium (GC 4556) (Enterococcus sp.; inoculum 5×10^5 CFU/mL, strain GC 4556): 2 to 4 µg/mL | MIC Enterococcus faecium (GC 4557) (Enterococcus sp.; inoculum 5×10^5 CFU/mL, strain GC 4557): 1 to 2 µg/mL | MIC Enterococcus avium (GC 4558) (Enterococcus sp.; inoculum 5×10^5 CFU/mL, strain GC 4558): 2 to 4 µg/mL | MIC Enterococcus faecalis (GC 6189) (Enterococcus sp.; inoculum 5×10^5 CFU/mL, strain GC 6189): 1 to 4 µg/mL | MIC Streptococcus agalactiae (GC 4564) (Streptococcus sp.): <0.06 to 0.12 µg/mL | MIC Streptococcus pneumoniae (ATCC 6301) (Streptococcus sp.): <0.06 µg/mL | MIC Streptococcus pneumoniae (GC 1894) (Streptococcus sp.): <0.06 µg/mL | MIC Streptococcus pneumoniae (GC 4565) (Streptococcus sp.): <0.06 µg/mL | MIC Streptococcus pyogenes (GC 4563) (Streptococcus sp.): <0.06 to 0.25 µg/mL | MIC Streptococcus pneumoniae (ATCC 6301) (Streptococcus sp.; inoculum 5×10^5 CFU/mL, strain ATCC 6301): <0.06 µg/mL | MIC Streptococcus pneumoniae (GC 1894) (Streptococcus sp.; inoculum 5×10^5 CFU/mL, strain GC 1894): <0.06 µg/mL | MIC Streptococcus pyogenes (GC 4563) (Streptococcus sp.; inoculum 5×10^5 CFU/mL, strain GC 4563): <0.06 to 0.25 µg/mL | MIC Streptococcus agalactiae (GC 4564) (Streptococcus sp.; inoculum 5×10^5 CFU/mL, strain GC 4564): <0.06 to 0.12 µg/mL | MIC Streptococcus pneumoniae (GC 4565) (Streptococcus sp.; inoculum 5×10^5 CFU/mL, strain GC 4565): <0.06 µg/mL
